Assay results: PMC5218480 (PLoS ONE, 2017)

Tested on: MV-4-11 cells
Assay: Gene expression microarray analysis (Affymetrix PrimeView) and GSEA
Format: cell-based, human
Design: RFU PODN (11730768_x_at) / Fold change /veh PODN (11730768_x_at) / RFU LINC00158 (11744669_a_at) / Fold change /veh LINC00158 (11744669_a_at) / RFU DUSP10 (11751237_a_at) / Fold change /veh DUSP10 (11751237_a_at) / RFU ID3 (11757404_x_at) / Fold change /veh ID3 (11757404_x_at) / RFU PLEKHG5 (11737974_s_at) / Fold change /veh PLEKHG5 (11737974_s_at) / RFU LRRC4B (11730491_at) / Fold change /veh LRRC4B (11730491_at) / RFU GIMAP4 (11747438_a_at) / Fold change /veh GIMAP4 (11747438_a_at) / RFU KRT8 (11758183_x_at) / Fold change /veh KRT8 (11758183_x_at) / RFU CNN1 (11734310_a_at) / Fold change /veh CNN1 (11734310_a_at) / RFU VPS37D (11726825_at) / Fold change /veh VPS37D (11726825_at) / RFU C10orf10 (11716522_x_at) / Fold change /veh C10orf10 (11716522_x_at) / RFU KIR2DL2 /// KIR2DL4 /// KIR2DL5A /// KIR2DL5B /// KIR2DS1 /// KIR2DS2 /// KIR2DS3 /// KIR2DS4 /// KIR3DL3 /// KIR3DL3 /// KIR3DS1 (11738374_at) / Fold change /veh KIR2DL2 /// KIR2DL4 /// KIR2DL5A /// KIR2DL5B /// KIR2DS1 /// KIR2DS2 /// KIR2DS3 /// KIR2DS4 /// KIR3DL3 /// KIR3DL3 /// KIR3DS1 (11738374_at) / RFU C1QL1 (11718748_at) / Fold change /veh C1QL1 (11718748_at) / RFU TMPRSS4 (11747572_a_at) / Fold change /veh TMPRSS4 (11747572_a_at) / RFU HAMP (11756126_x_at) / Fold change /veh HAMP (11756126_x_at) / RFU RNFT2 (11725882_a_at) / Fold change /veh RNFT2 (11725882_a_at) / RFU NR4A2 (11747474_a_at) / Fold change /veh NR4A2 (11747474_a_at) / RFU ABCC12 (11746883_a_at) / Fold change /veh ABCC12 (11746883_a_at) / RFU TMEM136 (11760407_x_at) / Fold change /veh TMEM136 (11760407_x_at) / RFU CLDN22 /// WWC2 (11732394_at) / Fold change /veh CLDN22 /// WWC2 (11732394_at) / RFU HLA-DPB1 (11760878_x_at) / Fold change /veh HLA-DPB1 (11760878_x_at) / RFU SPINT1 (11716480_a_at) / Fold change /veh SPINT1 (11716480_a_at) / RFU GAP43 (11754022_s_at) / Fold change /veh GAP43 (11754022_s_at) / RFU A4GNT (11735810_at) / Fold change /veh A4GNT (11735810_at) / RFU PRB3 (11715151_x_at) / Fold change /veh PRB3 (11715151_x_at) / RFU TUBB4B (11761932_at) / Fold change /veh TUBB4B (11761932_at) / RFU CAPN14 (11732068_a_at) / Fold change /veh CAPN14 (11732068_a_at) / RFU TMCC2 (11721928_a_at) / Fold change /veh TMCC2 (11721928_a_at) / RFU IRGQ (11745062_a_at) / Fold change /veh IRGQ (11745062_a_at) / RFU FAM174B (11720279_a_at) / Fold change /veh FAM174B (11720279_a_at) / RFU TMPRSS4 (11748680_a_at) / Fold change /veh TMPRSS4 (11748680_a_at) / RFU FAM212B (11763350_a_at) / Fold change /veh FAM212B (11763350_a_at) / RFU PLEKHG5 (11743358_a_at) / Fold change /veh PLEKHG5 (11743358_a_at) / RFU ZSCAN30 (11745921_a_at) / Fold change /veh ZSCAN30 (11745921_a_at) / RFU CMKLR1 (11741424_a_at) / Fold change /veh CMKLR1 (11741424_a_at) / RFU LOC101060620 /// MAPK8IP1 (11723275_at) / Fold change /veh LOC101060620 /// MAPK8IP1 (11723275_at) / RFU SPTSSB (11747773_x_at) / Fold change /veh SPTSSB (11747773_x_at) / RFU PRSS12 (11739890_at) / Fold change /veh PRSS12 (11739890_at) / RFU BIN1 (11741810_x_at) / Fold change /veh BIN1 (11741810_x_at) / RFU WNT11 (11732464_a_at) / Fold change /veh WNT11 (11732464_a_at) / RFU C10orf10 (11716521_a_at) / Fold change /veh C10orf10 (11716521_a_at) / RFU C5orf56 (11738089_at) / Fold change /veh C5orf56 (11738089_at) / RFU CYB561 (11721691_x_at) / Fold change /veh CYB561 (11721691_x_at) / RFU ANKRD19P (11752326_a_at) / Fold change /veh ANKRD19P (11752326_a_at) / RFU OR2T12 /// OR2T33 /// OR2T8 (11738714_s_at) / Fold change /veh OR2T12 /// OR2T33 /// OR2T8 (11738714_s_at) / RFU VCAN (11748164_a_at) / Fold change /veh VCAN (11748164_a_at) / RFU JSRP1 (11732532_at) / Fold change /veh JSRP1 (11732532_at) / RFU KRTAP10-11 (11738290_x_at) / Fold change /veh KRTAP10-11 (11738290_x_at) / RFU MYO3A (11730013_a_at) / Fold change /veh MYO3A (11730013_a_at) / RFU EBF3 (11725865_a_at) / Fold change /veh EBF3 (11725865_a_at) / RFU CAMK2N1 (11719241_x_at) / Fold change /veh CAMK2N1 (11719241_x_at) / RFU C5orf56 (11738088_a_at) / Fold change /veh C5orf56 (11738088_a_at) / RFU OLFML3 (11715873_a_at) / Fold change /veh OLFML3 (11715873_a_at) / RFU LOC100653217 /// NTM (11731650_a_at) / Fold change /veh LOC100653217 /// NTM (11731650_a_at) / RFU MAPK11 (11762145_a_at) / Fold change /veh MAPK11 (11762145_a_at) / RFU FIZ1 (11724087_x_at) / Fold change /veh FIZ1 (11724087_x_at) / RFU OASL (11726364_x_at) / Fold change /veh OASL (11726364_x_at) / RFU SOX15 (11748057_x_at) / Fold change /veh SOX15 (11748057_x_at) / RFU CD79A (11719716_a_at) / Fold change /veh CD79A (11719716_a_at) / RFU HIST1H1D (11736915_at) / Fold change /veh HIST1H1D (11736915_at) / RFU CASKIN2 (11723855_a_at) / Fold change /veh CASKIN2 (11723855_a_at) / RFU LOC730098 (11760151_x_at) / Fold change /veh LOC730098 (11760151_x_at) / RFU OR4N2 (11742367_at) / Fold change /veh OR4N2 (11742367_at) / RFU PRRT2 (11749266_a_at) / Fold change /veh PRRT2 (11749266_a_at) / RFU SNX32 (11753110_a_at) / Fold change /veh SNX32 (11753110_a_at) / RFU CDHR5 (11726645_a_at) / Fold change /veh CDHR5 (11726645_a_at) / RFU RCAN1 (11760418_a_at) / Fold change /veh RCAN1 (11760418_a_at) / RFU FAM167A (11723789_a_at) / Fold change /veh FAM167A (11723789_a_at) / RFU FAM26E (11764081_at) / Fold change /veh FAM26E (11764081_at) / RFU ISYNA1 (11749810_s_at) / Fold change /veh ISYNA1 (11749810_s_at) / RFU ACY1 (11761880_at) / Fold change /veh ACY1 (11761880_at) / RFU 11764098_at / Fold change /veh 11764098_at / RFU SAMD14 (11745864_x_at) / Fold change /veh SAMD14 (11745864_x_at) / RFU NPB (11741838_a_at) / Fold change /veh NPB (11741838_a_at) / RFU TMPRSS6 (11731388_a_at) / Fold change /veh TMPRSS6 (11731388_a_at) / RFU KRTAP10-2 (11738614_at) / Fold change /veh KRTAP10-2 (11738614_at) / RFU ARHGAP8 /// PRR5-ARHGAP8 (11727945_x_at) / Fold change /veh ARHGAP8 /// PRR5-ARHGAP8 (11727945_x_at) / RFU KRTAP5-7 /// NADSYN1 (11734609_at) / Fold change /veh KRTAP5-7 /// NADSYN1 (11734609_at) / RFU RASL12 (11751679_a_at) / Fold change /veh RASL12 (11751679_a_at) / RFU CDKN2B (11736163_a_at) / Fold change /veh CDKN2B (11736163_a_at) / RFU PRF1 (11729649_at) / Fold change /veh PRF1 (11729649_at) / RFU, ZNF638 /// ZNF638-IT1 / Fold change vs veh, ZNF638 /// ZNF638-IT1 / RFU, PANK3 / Fold change vs veh, PANK3 / RFU, SH3YL1 / Fold change vs veh, SH3YL1 / RFU, ZEB2 / Fold change vs veh, ZEB2 / RFU, NRIP1 / Fold change vs veh, NRIP1 / RFU, PTTG1IP / Fold change vs veh, PTTG1IP / RFU, CAPN2 / Fold change vs veh, CAPN2 / RFU, MED14 / Fold change vs veh, MED14 / RFU, SNORA58 / Fold change vs veh, SNORA58 / RFU, C1orf63 / Fold change vs veh, C1orf63 / RFU, LRRFIP1 / Fold change vs veh, LRRFIP1 / RFU, NDUFAF7 / Fold change vs veh, NDUFAF7 / RFU, SLC12A2 / Fold change vs veh, SLC12A2 / RFU, IBTK / Fold change vs veh, IBTK / RFU, ESF1 / Fold change vs veh, ESF1 / Fold change vs veh, TMEM50B / RFU, TAOK1 / Fold change vs veh, TAOK1 / RFU, ACBD3 / Fold change vs veh, ACBD3 / RFU, TMA16 / Fold change vs veh, TMA16 / RFU, RWDD3 / Fold change vs veh, RWDD3 / RFU, BCAT1 / Fold change vs veh, BCAT1 / RFU, EDEM3 / Fold change vs veh, EDEM3 / RFU, TMEM33 / Fold change vs veh, TMEM33 / RFU, WDR75 / Fold change vs veh, WDR75 / RFU, AHCTF1 / Fold change vs veh, AHCTF1 / RFU, TFRC / Fold change vs veh, TFRC / RFU, ZDHHC17 / Fold change vs veh, ZDHHC17 / RFU, NOM1 / Fold change vs veh, NOM1 / RFU, ARL8B / Fold change vs veh, ARL8B / RFU, ZBTB11 / Fold change vs veh, ZBTB11 / RFU, TAMM41 / Fold change vs veh, TAMM41 / RFU, KIAA1704 /// LOC100996395 / Fold change vs veh, KIAA1704 /// LOC100996395 / RFU, ING1 / Fold change vs veh, ING1 / RFU, TRMT61B / Fold change vs veh, TRMT61B / RFU, FUBP3 / Fold change vs veh, FUBP3 / RFU, TP53 / Fold change vs veh, TP53 / RFU, TNKS2 / Fold change vs veh, TNKS2 / RFU, ZFP14 / Fold change vs veh, ZFP14 / RFU, ACTR2 / Fold change vs veh, ACTR2 / RFU, PPP3R1 / Fold change vs veh, PPP3R1 / RFU, PIK3R1 / Fold change vs veh, PIK3R1 / RFU, HNRNPA1 / Fold change vs veh, HNRNPA1 / RFU, RNF170 / Fold change vs veh, RNF170 / RFU, ZNF28 / Fold change vs veh, ZNF28 / RFU, RNGTT / Fold change vs veh, RNGTT / RFU, OGT / Fold change vs veh, OGT / RFU, BRD1 / Fold change vs veh, BRD1 / RFU, MARS / Fold change vs veh, MARS / RFU, ZNF655 / Fold change vs veh, ZNF655 / RFU, FAHD1 / Fold change vs veh, FAHD1 / RFU, BDP1 / Fold change vs veh, BDP1 / RFU, LRRCC1 / Fold change vs veh, LRRCC1 / RFU, ARID1A / Fold change vs veh, ARID1A / RFU, ZNF146 / Fold change vs veh, ZNF146 / RFU, ZNF330 / Fold change vs veh, ZNF330 / RFU, GPN3 / Fold change vs veh, GPN3 / RFU, C9orf123 / Fold change vs veh, C9orf123 / RFU, N4BP2L2 / Fold change vs veh, N4BP2L2 / RFU, ARFIP1 / Fold change vs veh, ARFIP1 / RFU, FAM179B / Fold change vs veh, FAM179B / RFU, BCL10 / Fold change vs veh, BCL10 / RFU, UHRF1BP1L / Fold change vs veh, UHRF1BP1L / RFU, BET1 / Fold change vs veh, BET1 / RFU, CNOT2 / Fold change vs veh, CNOT2 / RFU, ZNF268 / Fold change vs veh, ZNF268 / Fold change vs veh, ZNF507 / RFU, DGCR2 / Fold change vs veh, DGCR2 / RFU, WDSUB1 / Fold change vs veh, WDSUB1 / Fold change vs veh, HSP90B1 /// MIR3652 / RFU, ADSS / Fold change vs veh, ADSS / RFU, GK / Fold change vs veh, GK / RFU, ZNF148 / Fold change vs veh, ZNF148 / RFU, TAF9 / Fold change vs veh, TAF9 / RFU, SLC1A5 / Fold change vs veh, SLC1A5 / RFU, SLMO2 / Fold change vs veh, SLMO2 / RFU, ABCC4 / Fold change vs veh, ABCC4 / RFU, LOC101060439 /// RAP1B / Fold change vs veh, LOC101060439 /// RAP1B / RFU, RFX7 / Fold change vs veh, RFX7 / RFU, GTPBP10 / Fold change vs veh, GTPBP10 / RFU, CNEP1R1 / Fold change vs veh, CNEP1R1 / RFU, BIVM-ERCC5 /// ERCC5 / Fold change vs veh, BIVM-ERCC5 /// ERCC5 / RFU, ILF3 / Fold change vs veh, ILF3 / RFU 11762660_at / Fold change /veh 11762660_at / RFU VCAN (11757783_s_at) / Fold change /veh VCAN (11757783_s_at) / RFU DDX43 (11728927_at) / Fold change /veh DDX43 (11728927_at) / RFU KRT8 (11758188_x_at) / Fold change /veh KRT8 (11758188_x_at) / RFU NKD1 (11759106_at) / Fold change /veh NKD1 (11759106_at) / RFU SRD5A1 (11742802_a_at) / Fold change /veh SRD5A1 (11742802_a_at) / RFU TPSAB1 /// TPSB2 (11721975_s_at) / Fold change /veh TPSAB1 /// TPSB2 (11721975_s_at) / RFU GSTM3 (11746129_a_at) / Fold change /veh GSTM3 (11746129_a_at) / RFU IL23R (11737362_x_at) / Fold change /veh IL23R (11737362_x_at) / RFU TMEM51 (11727254_a_at) / Fold change /veh TMEM51 (11727254_a_at) / RFU PIWIL2 (11732686_x_at) / Fold change /veh PIWIL2 (11732686_x_at) / RFU ORM1 (11744905_x_at) / Fold change /veh ORM1 (11744905_x_at) / RFU CCDC152 (11743942_at) / Fold change /veh CCDC152 (11743942_at) / RFU ECM1 (11717891_a_at) / Fold change /veh ECM1 (11717891_a_at) / RFU IL23R (11748794_a_at) / Fold change /veh IL23R (11748794_a_at) / RFU TNFAIP8L3 (11732012_x_at) / Fold change /veh TNFAIP8L3 (11732012_x_at) / RFU MBOAT4 (11741988_at) / Fold change /veh MBOAT4 (11741988_at) / RFU 11764193_at / Fold change /veh 11764193_at / RFU TMEM53 (11763286_at) / Fold change /veh TMEM53 (11763286_at) / RFU MAGEB2 (11727129_at) / Fold change /veh MAGEB2 (11727129_at) / RFU TMEM200A (11744735_a_at) / Fold change /veh TMEM200A (11744735_a_at) / RFU CCDC152 (11751479_a_at) / Fold change /veh CCDC152 (11751479_a_at) / RFU FAM211A (11726209_a_at) / Fold change /veh FAM211A (11726209_a_at) / RFU RGS16 (11746705_a_at) / Fold change /veh RGS16 (11746705_a_at) / RFU VCAN (11755009_s_at) / Fold change /veh VCAN (11755009_s_at) / RFU RHOB (11743442_s_at) / Fold change /veh RHOB (11743442_s_at) / RFU RGS16 (11720943_a_at) / Fold change /veh RGS16 (11720943_a_at) / RFU RGS16 (11720944_at) / Fold change /veh RGS16 (11720944_at) / RFU, VPS4B / Fold change vs veh, VPS4B / RFU, CREB1 / Fold change vs veh, CREB1 / RFU, DNAJC13 / Fold change vs veh, DNAJC13 / RFU, GNAQ / Fold change vs veh, GNAQ / RFU, CDK5R1 / Fold change vs veh, CDK5R1 / RFU, ZRANB3 / Fold change vs veh, ZRANB3 / RFU, CUL4A / Fold change vs veh, CUL4A / RFU, CCNY / Fold change vs veh, CCNY / RFU, UFL1 / Fold change vs veh, UFL1 / RFU, COG3 / Fold change vs veh, COG3 / RFU, DIAPH2 / Fold change vs veh, DIAPH2 / RFU, SKA2 / Fold change vs veh, SKA2 / RFU, AFF3 / Fold change vs veh, AFF3 / RFU, LMF1 / Fold change vs veh, LMF1 / RFU, IPO11 / Fold change vs veh, IPO11 / RFU, DFFB / Fold change vs veh, DFFB / RFU, FOXP1 / Fold change vs veh, FOXP1 / RFU, CARD8 / Fold change vs veh, CARD8 / RFU, STRN3 / Fold change vs veh, STRN3 / RFU, ADK / Fold change vs veh, ADK / RFU, RASSF2 / Fold change vs veh, RASSF2 / RFU, WIPF1 / Fold change vs veh, WIPF1 / RFU, LARP1B / Fold change vs veh, LARP1B / RFU, RASA1 / Fold change vs veh, RASA1 / RFU, RB1 / Fold change vs veh, RB1 / RFU, PPFIA1 / Fold change vs veh, PPFIA1 / RFU, MAT2A / Fold change vs veh, MAT2A / RFU, CCT5 / Fold change vs veh, CCT5 / RFU, WDR92 / Fold change vs veh, WDR92 / RFU, CUX1 / Fold change vs veh, CUX1 / RFU, TTC7A / Fold change vs veh, TTC7A / RFU, TMEM135 / Fold change vs veh, TMEM135 / RFU, DEPTOR / Fold change vs veh, DEPTOR / RFU, CPM / Fold change vs veh, CPM / RFU, DNAJB6 / Fold change vs veh, DNAJB6 / RFU, CACNA2D3 / Fold change vs veh, CACNA2D3 / RFU, DTX4 / Fold change vs veh, DTX4 / RFU, TFCP2 / Fold change vs veh, TFCP2 / RFU, GMCL1 /// GMCL1P1 / Fold change vs veh, GMCL1 /// GMCL1P1 / RFU, AEBP2 / Fold change vs veh, AEBP2 / RFU, SNHG1 /// SNORD22 /// SNORD25 /// SNORD26 /// SNORD27 /// SNORD28 /// SNORD29 /// SNORD31 / Fold change vs veh, SNHG1 /// SNORD22 /// SNORD25 /// SNORD26 /// SNORD27 /// SNORD28 /// SNORD29 /// SNORD31 / Fold change (Aza/veh), C12orf56 (ProbeSet 11735607_a_at) / Fold change (ACY-1035/veh), C12orf56 (ProbeSet 11735607_a_at) / Fold change (Aza/veh), FGFR1OP (ProbeSet 11751329_s_at) / Fold change (ACY-1035/veh), FGFR1OP (ProbeSet 11751329_s_at) / Fold change (Aza/veh), VPS36 (ProbeSet 11739960_a_at) / Fold change (ACY-1035/veh), VPS36 (ProbeSet 11739960_a_at) / RFU SYPL1 (11715823_x_at) / Fold change /veh SYPL1 (11715823_x_at) / RFU IGFBP7 (11715501_s_at) / Fold change /veh IGFBP7 (11715501_s_at) / RFU REEP3 (11722064_at) / Fold change /veh REEP3 (11722064_at) / RFU IGLL1 (11728026_x_at) / Fold change /veh IGLL1 (11728026_x_at): dose or concentration left out as unconfirmed
Details: MV-4-11 cells, 48 hours

## Nc1ncn([C@@H]2O[C@H](CO)[C@@H](O)[C@H]2O)c(=O)n1 [azacitidine]
  Fold change /veh BIN1 (11741810_x_at): 1.02
